The source made the active and inactive calls. How the calls were made is not given here.
Assay: Cytotoxicity activity against human HepG2 cells assessed by CellTiter-Glo luminescent cell viability assay.
Assay type: toxicity, cell-based
Set-up: assay stage confirmatory assay, source tissue liver
Conditions: HepG2 cells, read-out: IC50 relative

With COc1ccc2c(O[C@@H]3C[C@H]4C(=O)N[C@]5(C(=O)NS(=O)(=O)C6CC6)C[C@H]5/C=C\CCCCN(C)C(=O)[C@@H]4C3)cc(-c3nc(C(C)C)cs3)nc2c1C the CC50 was 8.6 µM (active).
With Cc1nn(-c2cccc(Cl)c2)nc1C(=O)N(C)C1CCNCC1 the CC50 was 11.4 µM (active).
In the case of O=C1NCCc2[nH]c(-c3ccncc3)cc21, the CC50 is reported as 0.9 µM (active).
In the case of CCN(CC)CCCNC(=O)C1CCN(c2nc3ccccc3n(Cc3ccccc3)c2=O)CC1, the CC50 is reported as 6.4 µM (active).
In the case of CC(C(=O)NCCN(C)C)C1CCN(C(=O)c2cc3cc(Cl)ccc3[nH]2)CC1 (stereo not drawn), the CC50 is reported as 6.3 µM (active).
In the case of O=S1(=O)C[C@H](NC2CCCC2)[C@@H](S(=O)(=O)c2ccc(Cl)cc2)C1, the CC50 is reported as 12.1 µM (active).
With COC[C@H]1OC(=O)c2coc3c2[C@@]1(C)C1=C(C3=O)[C@@H]2CCC(=O)[C@@]2(C)C[C@H]1OC(C)=O [WORTMANNIN] the CC50 was 7.4 µM (active).
For COc1ccccc1C(=O)Nc1cc2c(cc1N1CCNC[C@H]1C)n(C)c(=O)n2C, the CC50 was 16.9 µM (inactive).
In the case of Cc1[nH]c2c(C)ccc(F)c2c1CCN, the CC50 is reported as 11.7 µM (active).
For Cc1cc(CS(=O)(=O)c2ccccc2)cc(OCc2ccc(CN3CCC[C@@H]3CO)cc2)c1, the CC50 was 7.9 µM (active).
With Cc1ccc2nccc(N3CCCC(CCC(=O)N(C)C)C3)c2c1 (stereo not drawn) the CC50 was 8.3 µM (active).
For O=C1NCCSc2c1sc1ccc(O)cc21, the CC50 was 1 µM (active).
In the case of CC(C)n1c(/C=C/[C@@H](O)C[C@@H](O)CC(=O)O)c(-c2ccc(F)cc2)c2ccccc21 [LESCOL], the CC50 is reported as 7.4 µM (active).
With COc1cc(/N=c2\ssnc2Cl)cc(OC)c1OC the CC50 was 8.1 µM (active).
In the case of O=S(=O)(NCCNC/C=C/c1ccc(Br)cc1)c1cccc2cnccc12, the CC50 is reported as 9.7 µM (active).
In the case of C=CC(=O)Nc1cccc(Nc2nc(Nc3ccc(OCCOC)cc3)ncc2F)c1 [SPEBRUTINIB], the CC50 is reported as 1.3 µM (active).
With CC(C)Cn1ncc2cc(C(=O)Nc3nc4ccccc4[nH]3)cnc21 the CC50 was 15.5 µM (inactive).
With Cc1nonc1Cn1nc(Cl)c(Cl)cc1=O the CC50 was 21.6 µM (inactive).
For CN1CCN(c2cc3c(cc2S(=O)(=O)N2CCCCCC2)C(=O)Nc2ccccc2O3)CC1, the CC50 was 11.5 µM (active).
For CCn1c(=O)c(-c2ccc(Cl)cc2Cl)cc2cnc(Nc3ccc(N4CCNCC4)c(F)c3)nc21, the CC50 was 1.5 µM (active).
In the case of Cc1cc(C)cc(OC[C@@H](O)CN2CCC(C(=O)Nc3ccccc3)CC2)c1, the CC50 is reported as 12.1 µM (active).
In the case of CCS(=O)(=O)c1ccc(CC(=O)Nc2cc(Cl)c(-c3ccccc3OC(F)(F)F)c(Cl)c2)cc1, the CC50 is reported as 12.7 µM (inactive).
With Cc1cc(N)c2ccccc2[n+]1CCCCCCCCCC[n+]1c(C)cc(N)c2ccccc21 [DEQUALINIUM CHLORIDE] the CC50 was 14.4 µM (inactive).
For NC(=O)c1cc(NC(=O)CCSc2ccccc2Br)[nH]n1, the CC50 was 13.6 µM (active).
In the case of Cc1sc2c(c1C)C(c1ccc(Cl)cc1)=N[C@@H](CC(=O)Nc1ccc(O)cc1)c1nnc(C)n1-2 [BIRABRESIB], the CC50 is reported as 1.3 µM (active).
In the case of CC[C@@H]1C(=O)N(C)c2cnc(Nc3ccc(C(=O)N[C@H]4CC[C@H](N5CCN(CC6CC6)CC5)CC4)cc3OC)nc2N1C(C)C [VOLASERTIB], the CC50 is reported as 0.9 µM (active).
For CN(Cc1cc(=O)n2cccc(O)c2n1)CC1(c2ccccc2)CC1(C)C (stereo not drawn), the CC50 was 2.9 µM (active).
For COc1cc(CN2CCN(c3ccccc3C)CC2)ccc1O, the CC50 was 8 µM (active).
With O=C(CC1Sc2ncnn2C1=O)Nc1ccc(Br)cc1 (stereo not drawn) the CC50 was 15.3 µM (inactive).
In the case of O=C(NCc1cccc(O)c1)Nc1nc(-c2ccncc2)cs1, the CC50 is reported as 10.7 µM (inactive).
For c1ccc2c(c1)sc1ncnc(NC[C@H]3CN(C4CC4)CCO3)c12, the CC50 was 11.8 µM (active).
In the case of c1ccc(CCCN2CCN(CCOC(c3ccccc3)c3ccccc3)CC2)cc1, the CC50 is reported as 9.1 µM (active).
In the case of COc1cc2nc(-c3cc(F)ccc3O)nc(N[C@@H]3CNC[C@H]3C(C)(C)O)c2cc1OC, the CC50 is reported as 1.6 µM (active).
For CCCCc1ccc(-c2cnn3cccnc23)cc1, the CC50 was 8.3 µM (inactive).
With CC1(C)CC[C@]2(C(=O)O)CC[C@]3(C)C(=CC[C@@H]4[C@@]5(C)CCC(=O)C(C)(C)[C@@H]5CC[C@]43C)[C@@H]2C1 [OLEANONIC ACID] the CC50 was 8.4 µM (inactive).
For COc1ccc(-c2noc(N3CCC(C(=O)NCCCN4CCC(C)CC4)CC3)n2)cc1, the CC50 was 19.2 µM (inactive).
With CNc1ncc2cc(-c3ccc(-c4cccc(C)n4)cc3Cl)c(=O)n(C[C@H]3OC[C@H](N)CO3)c2n1 the CC50 was 4.5 µM (active).
For COc1ccc2c(c1)c(C1=C(c3c[nH]c4ccccc34)C(=O)NC1=O)cn2CCCN(C)C, the CC50 was 4.7 µM (active).
With Nc1nc(Nc2ccc3c(c2)CC[C@@H](N2CCCC2)CC3)nn1-c1cc2c(nn1)-c1ccccc1CCC2 [BEMCENTINIB] the CC50 was 1.2 µM (active).
In the case of CCc1ccc(S(=O)(=O)N2CCN(c3cc(-n4ccc(C)n4)ncn3)CC2)cc1, the CC50 is reported as 6.7 µM (active).
For O=C(Nc1nc(-c2ccccc2)cs1)C1CCN(S(=O)(=O)c2cccnc2)CC1, the CC50 was 6 µM (active).
For O=S(=O)(Nc1ccc(Cl)c2cccnc12)c1c[nH]c2ncccc12, the CC50 was 5.5 µM (inactive).
In the case of CN1C/C=C\CCOc2cccc(c2)-c2ccnc(n2)Nc2cccc(c2)C1, the CC50 is reported as < 0.1 µM (active).
For Cc1c(C(=O)c2cccc3ccccc23)c2cccc3c2n1[C@H](CN1CCOCC1)CO3, the CC50 was 3.2 µM (active).
With C=CCn1c(=O)c2cnc(Nc3ccc(N4CCN(C)CC4)cc3)nc2n1-c1cccc(C(C)(C)O)n1 [ADAVOSERTIB] the CC50 was 4.5 µM (active).
With CCOc1ccccc1NC(=O)c1cnc2sc(N3CCOCC3)nn2c1=O the CC50 was 15.6 µM (inactive).
For CN(Cc1ccc2c(c1)OCCO2)C(=O)[C@H]1CCCN(S(N)(=O)=O)C1, the CC50 was 50 µM (inactive).
With O=S(=O)(c1ccccc1)N(CC(F)(F)F)c1ccc(C(O)(C(F)(F)F)C(F)(F)F)cc1 [T091317] the CC50 was 13.4 µM (inactive).
In the case of CO/N=C(/C(=O)OC)c1ccccc1COc1ccccc1C [KRESOXIM-METHYL], the CC50 is reported as 12.5 µM (active).
In the case of CCN(CC)CCN(C(C)=O)c1nc2cc(C)cc(C)c2s1, the CC50 is reported as 8.6 µM (active).
With COc1ccccc1C(=O)Nc1nc2ccccc2[nH]1 the CC50 was 2.8 µM (active).
In the case of COc1ccc(Nc2nc(CN3CCN(S(=O)(=O)c4cccs4)CC3)cs2)cc1, the CC50 is reported as 7.1 µM (active).
With CC(C)S(=O)(=O)N1CC(Oc2ccc(-c3noc(-c4ccncc4)n3)cc2)C1 the CC50 was 19.7 µM (inactive).
In the case of O=C(Nc1c[nH]nc1-c1nc2cc(CN3CCOCC3)ccc2[nH]1)NC1CC1 [AT-9283], the CC50 is reported as 1.2 µM (active).
With Cc1cc(C)cc(OCCN(C)[C@@H](C)c2nc(N)nc(N(C)C)n2)c1 the CC50 was 9 µM (active).
For CN(C)S(=O)(=O)c1cccc(NC(=O)CSc2cccc3cccnc23)c1, the CC50 was 3.5 µM (active).
In the case of CCOc1ccc(S(=O)(=O)N2CC(C)CC(C)C2)cc1C (stereo not drawn), the CC50 is reported as 17 µM (inactive).
With NC(=O)c1c(NC(=O)Cn2ncc(Cl)c(Cl)c2=O)sc2c1CCC2 the CC50 was 1.9 µM (active).
With CC1CCN(S(=O)(=O)c2ccc(-c3nc(C#N)c(NCCCN(C)C)o3)cc2)CC1 the CC50 was 5.8 µM (active).
With Cc1noc2ncnc(N3CCC(C(=O)N4CCN(c5cccc(Cl)c5)CC4)CC3)c12 the CC50 was 9.6 µM (active).
In the case of CCCc1cc(C)[nH]c(=O)c1CNC(=O)c1cc(-c2ccc(N3CCN(C(C)C)CC3)nc2)cc2c1cnn2C(C)C, the CC50 is reported as 2.6 µM (active).
With O=c1cc(O)c2c(-c3ccc(F)cc3)csc2[nH]1 the CC50 was 2.7 µM (active).
In the case of CC(C)CN(CCS(=O)(=O)c1ccc(C(C)(C)C)cc1)C1CCN(C)CC1, the CC50 is reported as 4.4 µM (active).
For C[C@@H](C(=O)Nc1c2c(nn1C)CSC2)N1Cc2ccccc2C1=O, the CC50 was 15.8 µM (inactive).
In the case of Cc1cc(OCC(=O)Nc2nc(-c3ccccn3)cs2)no1, the CC50 is reported as 8.8 µM (active).
With CCCc1cc(C)[nH]c(=O)c1CNC(=O)c1cc(-c2ccc(N3CCN(C)CC3)nc2)nc2c1cnn2C(C)C the CC50 was 7.5 µM (active).
With CC(C)N(CCNS(=O)(=O)c1ccc(-n2ncc(Cl)c(Cl)c2=O)cc1)C(C)C the CC50 was 1.3 µM (active).
For Cn1c(CNC(=O)c2ccc3c(c2)n(C)c(=O)c2ccnn23)nc2ccccc21, the CC50 was 16.4 µM (inactive).
For COc1cc2c(cc1OC(C)C)[C@H](c1ccc(Cl)cc1)N(c1ccc(N(C)C[C@H]3CC[C@H](N4CCN(C)C(=O)C4)CC3)cc1)C(=O)C2 [CGM-097], the CC50 was 6.3 µM (active).
In the case of CCOc1cc2ccccc2cc1C(=O)NCc1ccco1, the CC50 is reported as 1.7 µM (active).
In the case of COc1ccc(OC2CCN(CC[C@H]3CCCCN3C)CC2)cc1, the CC50 is reported as 11.2 µM (inactive).
For COc1cc(Nc2cnc(C#N)c(O[C@H](C)CN(C)C)n2)ncc1-c1cnn(C)c1, the CC50 was 10.4 µM (active).
With COc1cccc(C(=O)/N=c2\sc(C)c(C)n2Cc2ccc(C(=O)NCCN(C)C)o2)c1 the CC50 was 12.2 µM (active).
For CCOc1cccc(OCC)c2c(C)nc(C)c1-2, the CC50 was 26.6 µM (inactive).
In the case of COc1ccc(C)cc1CN(C)C(=O)CCN1C(=O)COc2ccccc21, the CC50 is reported as 5.1 µM (inactive).
In the case of COc1ccccc1OCCNc1ncnc2cc(F)ccc12, the CC50 is reported as 1.5 µM (active).
In the case of Cc1c(O)ccc2c(CN3CCN(c4ccc(F)cc4)CC3)cc(=O)oc12, the CC50 is reported as 24.8 µM (inactive).
For CNc1ccc(Br)cc1N, the CC50 was 4.1 µM (active).
In the case of [H]/N=C(\N/C(=N/[H])NCCCCCCNC(=N)NC(=N)Nc1ccc(Cl)cc1)Nc1ccc(Cl)cc1 [CHLORHEXIDINE], the CC50 is reported as 4.6 µM (active).
In the case of COc1ccc(CNc2nccn(-c3ccc4c(c3)OCO4)c2=O)cc1OC, the CC50 is reported as 9.1 µM (inactive).
For COc1ncccc1NC(=O)c1n[nH]c2ccccc12, the CC50 was 0.1 µM (active).
In the case of FC(F)(F)c1ccc(CNc2ccc(Cc3c[nH]c4ncc(Cl)cc34)cn2)cn1 [PEXIDARTINIB], the CC50 is reported as 5.2 µM (active).
In the case of C=CC(=O)N1CCC(Oc2cc3c(Nc4ccc(Cl)c(Cl)c4F)ncnc3cc2OC)CC1 [POZIOTINIB], the CC50 is reported as 18.7 µM (inactive).
For O=C(Nc1cccc(Nc2ncc(Br)c(NCCc3c[nH]cn3)n2)c1)N1CCCC1, the CC50 was 3.3 µM (active).
For COCC1CCN(Cc2ccc(C(C)C)cc(O)c2=O)CC1, the CC50 was 11.8 µM (active).
With CC(C)CNC(=O)COc1ccc(-c2nc(C(C)C)no2)cc1 the CC50 was 8.1 µM (active).
For c1ccc(-n2cnc3c(Nc4cnn(C[C@H]5CCCO5)c4)ncnc32)cc1, the CC50 was 5.8 µM (active).
With Cc1cc(NC(=O)c2cccc(NC(=O)/C=C/CN(C)C)c2)ccc1Nc1nccc(-c2cccnc2)n1 the CC50 was 3.8 µM (active).

Source: ChEMBL document CHEMBL5303711, “ECBD screening data for assay EOS300108” (2023)
